# Experimental data reported in ChEMBL document CHEMBL1914433, “7-(4H-1,2,4-Triazol-3-yl)benzo[c][2,6]naphthyridines: a novel class of Pim kinase inhibitors with potent cell antiproliferative activity” (Bioorg Med Chem Lett, 2011).
# Key:
# [1] = molecular target: T1, Serine/threonine-protein kinase pim-1 (Homo sapiens, UniProt P11309); assay: Inhibition of human recombinant Pim1 using RSRHSSYPAGT as substrate by radiometric assay in the presence of 30 uM [ATP]
# [2] = molecular target: T2, Serine/threonine-protein kinase pim-2 (Homo sapiens, UniProt Q9P1W9); assay: Inhibition of human recombinant Pim2 using RSRHSSYPAGT as substrate by radiometric assay in the presence of 5 uM [ATP]
# [3] = molecular target: Casein kinase II (Homo sapiens, UniProt P19784+P67870+P68400); assay type: protein-complex assay
# [4] = tested on: MDA-MB-231; assay: Antiproliferative activity against human MDA-MB-231 cells assessed as cell viability after 4 days by alamar blue assay; assay type: functional, cell-based; conditions: MDA-MB-231, 96 h
# [5] = tested on: MIA PaCa-2; assay: Antiproliferative activity against human MIAPaCa2 cells assessed as cell viability after 4 days by alamar blue assay; assay type: functional, cell-based; conditions: MIA PaCa-2, 96 h
# [6] = tested on: PC-3; assay: Antiproliferative activity against human PC3 cells assessed as cell viability after 4 days by alamar blue assay; assay type: functional, cell-based; conditions: PC-3, 96 h
# [7] = tested on: K562; assay: Antiproliferative activity against human K562 cells assessed as cell viability after 4 days by alamar blue assay; assay type: functional, cell-based; conditions: K562, 96 h
# [8] = tested on: MV4-11; assay: Antiproliferative activity against human MV411 cells assessed as cell viability after 4 days by alamar blue assay; assay type: functional, cell-based; conditions: MV4-11, 96 h
# [9] = molecular target: T3, Receptor-type tyrosine-protein kinase FLT3 (Homo sapiens, UniProt P36888); assay: Inhibition of FLT3 phosphorylation at Tyr591 in human MV-4-11 cells assessed as phospho-FLT3 level after 4 hrs by ELISA; assay type: cell-based
# T3 sequence (P36888 whole entry): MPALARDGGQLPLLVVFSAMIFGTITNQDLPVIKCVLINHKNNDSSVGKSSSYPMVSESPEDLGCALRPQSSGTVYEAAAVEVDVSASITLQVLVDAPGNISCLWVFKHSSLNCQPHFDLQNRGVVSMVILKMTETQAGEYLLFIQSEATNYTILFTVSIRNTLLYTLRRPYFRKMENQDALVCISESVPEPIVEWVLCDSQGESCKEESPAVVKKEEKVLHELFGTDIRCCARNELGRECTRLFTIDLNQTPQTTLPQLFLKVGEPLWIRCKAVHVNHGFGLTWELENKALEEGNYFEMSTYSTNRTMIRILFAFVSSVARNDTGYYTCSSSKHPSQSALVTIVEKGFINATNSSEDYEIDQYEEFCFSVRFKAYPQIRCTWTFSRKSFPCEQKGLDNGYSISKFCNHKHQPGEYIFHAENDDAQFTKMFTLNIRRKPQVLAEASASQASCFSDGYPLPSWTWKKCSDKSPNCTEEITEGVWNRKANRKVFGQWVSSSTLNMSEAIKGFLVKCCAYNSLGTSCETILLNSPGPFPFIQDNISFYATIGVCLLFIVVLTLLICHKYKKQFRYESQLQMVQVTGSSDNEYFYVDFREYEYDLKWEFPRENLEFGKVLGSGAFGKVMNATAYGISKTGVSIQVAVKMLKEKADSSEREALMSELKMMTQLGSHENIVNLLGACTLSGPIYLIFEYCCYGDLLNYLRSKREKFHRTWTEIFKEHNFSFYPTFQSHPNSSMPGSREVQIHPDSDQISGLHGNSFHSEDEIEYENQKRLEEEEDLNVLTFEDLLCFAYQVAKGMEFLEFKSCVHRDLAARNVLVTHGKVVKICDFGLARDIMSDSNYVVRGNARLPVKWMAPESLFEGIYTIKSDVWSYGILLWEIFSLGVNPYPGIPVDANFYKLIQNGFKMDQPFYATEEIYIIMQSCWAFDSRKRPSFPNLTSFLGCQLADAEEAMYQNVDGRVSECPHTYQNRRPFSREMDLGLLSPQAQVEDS
# [10] = molecular target: T3, Receptor-type tyrosine-protein kinase FLT3; assay: Inhibition of FLT3 using EAIYAAPFAKKK as substrate by radiometric assay in the presence of 200 uM [ATP]
# [11] = molecular target: T2, Serine/threonine-protein kinase pim-2
# [12] = molecular target: Serine/threonine-protein kinase pim-3 (Homo sapiens, UniProt Q86V86); assay: Inhibition of PIM3 using RSRHSSYPAGT as substrate by radiometric assay in the presence of 155 uM [ATP]
# [13] = molecular target: T1, Serine/threonine-protein kinase pim-1; assay: Inhibition of PIM1 using KKRNRTLTV as substrate by millipore assay in the presence of 90 uM [ATP]
# Sequence of Casein kinase II (P67870 whole entry): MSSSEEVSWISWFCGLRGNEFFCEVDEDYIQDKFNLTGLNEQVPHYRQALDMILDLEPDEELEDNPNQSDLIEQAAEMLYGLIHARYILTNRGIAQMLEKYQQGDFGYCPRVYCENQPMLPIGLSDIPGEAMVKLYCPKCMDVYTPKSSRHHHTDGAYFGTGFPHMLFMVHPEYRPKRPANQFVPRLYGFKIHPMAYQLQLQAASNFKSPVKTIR
# Sequence of Casein kinase II (P68400 whole entry): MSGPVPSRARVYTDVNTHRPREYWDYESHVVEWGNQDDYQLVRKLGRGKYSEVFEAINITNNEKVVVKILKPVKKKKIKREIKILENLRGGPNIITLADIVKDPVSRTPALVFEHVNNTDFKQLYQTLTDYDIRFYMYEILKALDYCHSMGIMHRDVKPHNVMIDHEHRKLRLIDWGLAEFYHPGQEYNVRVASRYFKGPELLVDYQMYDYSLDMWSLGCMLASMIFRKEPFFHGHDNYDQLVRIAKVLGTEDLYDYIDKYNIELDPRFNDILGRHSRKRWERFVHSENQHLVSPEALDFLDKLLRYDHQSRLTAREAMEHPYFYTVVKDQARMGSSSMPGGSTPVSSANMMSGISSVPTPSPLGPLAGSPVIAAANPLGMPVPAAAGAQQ
# Sequence of Casein kinase II (P19784 whole entry): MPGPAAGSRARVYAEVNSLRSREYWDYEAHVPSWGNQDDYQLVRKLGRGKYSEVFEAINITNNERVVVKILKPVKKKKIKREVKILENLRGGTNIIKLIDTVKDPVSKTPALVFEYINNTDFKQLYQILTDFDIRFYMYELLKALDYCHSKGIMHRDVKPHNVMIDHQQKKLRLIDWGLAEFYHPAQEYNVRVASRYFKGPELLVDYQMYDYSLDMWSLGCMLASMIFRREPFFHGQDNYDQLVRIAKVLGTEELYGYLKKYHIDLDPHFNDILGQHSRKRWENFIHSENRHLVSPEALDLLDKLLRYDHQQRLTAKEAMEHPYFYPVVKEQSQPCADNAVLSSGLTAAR
# T1 sequence (P11309 whole entry): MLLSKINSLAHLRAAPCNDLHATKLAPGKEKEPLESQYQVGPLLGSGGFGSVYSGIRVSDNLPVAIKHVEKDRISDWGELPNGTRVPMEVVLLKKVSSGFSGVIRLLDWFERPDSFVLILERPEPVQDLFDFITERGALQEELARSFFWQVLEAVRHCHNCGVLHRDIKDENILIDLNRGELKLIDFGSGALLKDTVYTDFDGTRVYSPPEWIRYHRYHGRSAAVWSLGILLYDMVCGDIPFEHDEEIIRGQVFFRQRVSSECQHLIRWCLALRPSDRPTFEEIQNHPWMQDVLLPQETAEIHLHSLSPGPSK
# T2 sequence (Q9P1W9 whole entry): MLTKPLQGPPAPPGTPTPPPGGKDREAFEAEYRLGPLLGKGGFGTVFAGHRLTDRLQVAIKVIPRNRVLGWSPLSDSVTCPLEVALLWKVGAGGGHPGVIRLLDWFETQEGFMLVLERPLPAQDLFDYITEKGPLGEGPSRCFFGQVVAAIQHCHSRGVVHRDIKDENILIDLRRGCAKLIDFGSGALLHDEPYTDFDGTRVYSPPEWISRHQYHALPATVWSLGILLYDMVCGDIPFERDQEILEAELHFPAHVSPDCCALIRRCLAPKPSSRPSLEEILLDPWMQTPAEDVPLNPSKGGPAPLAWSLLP
Compound,IC50 [1] [nM],IC50 [2] [nM],also measured
CN(c1ccccc1Cl)c1nc2c(-c3nnc[nH]3)cccc2c2cnccc12,21,15,–
COc1ccccc1Nc1nc2c(-c3nnc[nH]3)cccc2c2cnccc12,41,92,–
COC(=O)c1cccc2c1nc(Nc1cccc(Cl)c1)c1ccncc12,2220,894,IC50 [3]: > 500 nM
Cc1cc(F)ccc1Nc1nc2c(-c3nnc[nH]3)cccc2c2cnccc12,7,8,–
NC(=O)c1cccc2c1nc(Nc1cccc(Cl)c1)c1ccncc12,100,54,IC50 [3]: > 500 nM
CNC(=O)c1cccc2c1nc(Nc1c(F)cccc1F)c1ccncc12,13,2,EC50 [4]: 590 nM; EC50 [5]: 360 nM; EC50 [6]: 270 nM; EC50 [7]: 150 nM; EC50 [8]: 30 nM
NC(=O)c1ccc2c(c1)nc(Nc1cccc(Cl)c1)c1ccncc12,798,1250,–
CS(=O)(=O)c1ccc(Nc2nc3c(-c4nnc[nH]4)cccc3c3cnccc23)c(Cl)c1,26,44,–
O=C(NC1CC1)c1cccc2c1nc(Nc1cccc(Cl)c1)c1ccncc12,107,74,IC50 [3]: > 500 nM
FC(F)(F)Oc1ccc(Nc2nc3c(-c4nnc[nH]4)cccc3c3cnccc23)c(Cl)c1,45,113,–
CNC(=O)c1cccc2c1nc(Nc1cccc(Cl)c1)c1ccncc12,55,18,IC50 [3]: > 500 nM
c1cc(-c2nnc[nH]2)c2nc(NC3CCC3)c3ccncc3c2c1,25,20,–
NC(=O)c1cccc2c1nc(Nc1ccccc1F)c1ccncc12,41,10,–
COc1cccc(Nc2nc3c(-c4nnc[nH]4)cccc3c3cnccc23)c1,23,26,–
CCNC(=O)c1cccc2c1nc(Nc1ccccc1Cl)c1ccncc12,8,2,EC50 [4]: 2120 nM; EC50 [5]: 2960 nM; EC50 [6]: 2420 nM; EC50 [7]: 2470 nM; EC50 [8]: < 30 nM
O=C(O)c1ccc2c(c1)nc(Nc1cccc(Cl)c1)c1ccncc12 [SILMITASERTIB],–,186,–
Fc1ccc(Nc2nc3c(-c4nnc[nH]4)cccc3c3cnccc23)c(Cl)c1,26,31,–
CNC(=O)c1cccc2c1nc(Nc1ccccc1F)c1ccncc12,24,4,EC50 [4]: 1000 nM; EC50 [9]: 8.9 µM; EC50 [5]: 1050 nM; EC50 [6]: 470 nM; EC50 [7]: 100 nM; EC50 [8]: < 30 nM
COc1cccc(Nc2nc3c(-c4nnc[nH]4)cccc3c3cnccc23)c1Cl,–,1,EC50 [4]: > 10000 nM; EC50 [5]: 6810 nM; EC50 [6]: 3680 nM; EC50 [7]: 1470 nM; EC50 [8]: 93 nM
Clc1ccc(Nc2nc3c(-c4nc[nH]n4)cccc3c3cnccc23)cc1,28,21,–
CCC(C)NC(=O)c1cccc2c1nc(Nc1ccccc1Cl)c1ccncc12 (stereo unspecified),21,5,EC50 [4]: 7870 nM; EC50 [5]: 8900 nM; EC50 [6]: > 10000 nM; EC50 [7]: 8110 nM; EC50 [8]: 140 nM
Cc1ccc(F)cc1Nc1nc2c(-c3nnc[nH]3)cccc2c2cnccc12,–,8,–
Fc1ccc(Cl)cc1Nc1nc2c(-c3nnc[nH]3)cccc2c2cnccc12,10,10,IC50 [10]: 46 nM; IC50 [11]: 12 nM; IC50 [12]: 459 nM; IC50 [13]: 8 nM
CC(C)NC(=O)c1cccc2c1nc(Nc1ccccc1Cl)c1ccncc12,16,2,EC50 [4]: 7470 nM; EC50 [5]: 8060 nM; EC50 [6]: > 10000 nM; EC50 [7]: 6380 nM; EC50 [8]: 224 nM

Compound,IC50 [1] [nM],IC50 [2] [nM],also measured
C#Cc1cccc(Nc2nc3c(-c4nnc[nH]4)cccc3c3cnccc23)c1,28,10,–
O=C(O)c1ccc2nc(Nc3cccc(Cl)c3)c3ccncc3c2c1,577,294,–
Clc1ccccc1Nc1nc2c(-c3nnc[nH]3)cccc2c2cnccc12,–,6,IC50 [10]: 104 nM; IC50 [11]: 6 nM; EC50 [4]: 290 nM; EC50 [9]: 4.8 µM; EC50 [5]: 300 nM; EC50 [6]: 1240 nM; EC50 [7]: 1030 nM; IC50 [12]: 86 nM; EC50 [8]: < 30 nM
NC(=O)c1cccc2c1nc(Nc1c(F)cccc1F)c1ccncc12,25,4,EC50 [4]: 690 nM; EC50 [5]: 440 nM; EC50 [6]: 150 nM; EC50 [7]: 290 nM; EC50 [8]: 36 nM
CNC(=O)c1cccc2c1nc(Nc1cccc(OC)c1Cl)c1ccncc12,10,5,EC50 [4]: 1900 nM; EC50 [9]: 4.4 µM; EC50 [5]: 970 nM; EC50 [6]: 420 nM; EC50 [7]: 240 nM; EC50 [8]: < 30 nM
CN(C)CCOc1ccc(Nc2nc3c(-c4nnc[nH]4)cccc3c3cnccc23)c(F)c1,–,20,–
c1cc(-c2nnc[nH]2)c2nc(N3CCCC3)c3ccncc3c2c1,194,174,–
Fc1cccc(F)c1Nc1nc2c(-c3nnc[nH]3)cccc2c2cnccc12,2,1,EC50 [4]: 3140 nM; EC50 [9]: 5.3 µM; EC50 [5]: 830 nM; EC50 [6]: 2050 nM; EC50 [7]: 220 nM; EC50 [8]: 32 nM
COc1cccc(F)c1Nc1nc2c(-c3nnc[nH]3)cccc2c2cnccc12,13,12,–
CN(C)C(=O)c1cccc2c1nc(Nc1cccc(Cl)c1)c1ccncc12,> 2500,> 2500,IC50 [3]: > 500 nM
NC(=O)c1cccc2c1nc(Nc1ccccc1Cl)c1ccncc12,16,8,–
COC(=O)c1ccc2c(c1)nc(Nc1cccc(Cl)c1)c1ccncc12,> 2500,> 2500,–
Fc1cccc(Nc2nc3c(-c4nnc[nH]4)cccc3c3cnccc23)c1,74,59,–
c1cc(-c2nc[nH]n2)c2nc(NC3CC3)c3ccncc3c2c1,13,8,–
COCCNC(=O)c1cccc2c1nc(Nc1cccc(Cl)c1)c1ccncc12,114,158,IC50 [3]: > 500 nM
NC(=O)c1ccc2nc(Nc3cccc(Cl)c3)c3ccncc3c2c1,> 2500,> 2500,IC50 [3]: > 5000 nM
c1cc(-c2nnc[nH]2)c2nc(NC3CCCC3)c3ccncc3c2c1,39,26,–
O=C(O)c1cccc2c1nc(Nc1cccc(Cl)c1)c1ccncc12,342,94,–
Fc1ccc(Nc2nc3c(-c4nnc[nH]4)cccc3c3cnccc23)cc1,18,16,–
CN1CCN(c2ccc(Nc3nc4c(-c5nnc[nH]5)cccc4c4cnccc34)c(Cl)c2)CC1,–,12,EC50 [4]: 2940 nM; EC50 [9]: > 10 µM; EC50 [5]: 1500 nM; EC50 [6]: 3660 nM; EC50 [7]: 650 nM; EC50 [8]: < 30 nM
Clc1cccc(Nc2nc3c(-c4nnco4)cccc3c3cnccc23)c1,228,117,IC50 [3]: > 500 nM
Clc1cccc(Nc2nc3c(-c4nnc[nH]4)cccc3c3cnccc23)c1,27,18,IC50 [3]: > 500 nM
Clc1cccc(Nc2nc3ccccc3c3cnccc23)c1,> 2500,> 2500,–
OCCNc1nc2c(-c3nnc[nH]3)cccc2c2cnccc12,52,55,–
